Data on 3 compounds can be found in patent US7402402B2, “P38 MAPK pathway predicts endocrine-resistant growth of human breast cancer and provides a novel diagnostic and treatment target” (Baylor College of Medicine, priority 2001, dated 2008).

The subject of experiment [1] is ER-positive MCF-7 human breast cancer cells. The following applies: literature (Osborne et al., 1995), cited from earlier work.
For experiment [2] the test system is unchanged. Kind of experiment: MCF-7 human breast cancer xenografts in athymic nude mice, tumor volume. It is filed as in vivo. The note with it: wild type MCF-7 xenografts, treatment from day 17, FIG. 2A; growth eventually resumes (Tam^R). The text has this: The present inventors have developed an in vivo experimental model of tamoxifen resistance and resistance to estrogen deprivation in which ER-positive MCF-7 human breast cancer cells are inoculated subcutaneously into athymic nude mice [Osborne et al., 1987, Eur J Cancer Clin Oncol. 23(8):1189-1196; Osborne et al., 1991, J Natl Cancer Inst. 83(20):1477-1482]. […] This sequence of events is similar to that which occurs in patients. […] Since certain metabolites of tamoxifen have estrogenic properties, pharmacologic explanations for this tamoxifen-stimulated growth were investigated first.
ER-positive MCF-7 human breast cancer cells were grown as xenografts in athymic nude mice as described previously [Osborne et al., 1987, Eur J Cancer Clin Oncol. 23(8):1189-1196; Osborne et al., 1991, J Natl Cancer Inst. 83(20):1477-1482; Osborne et al., 1995, J Natl Cancer Inst 87:746-750]. Day 0 was the day of transplantation conducted and the day estrogen treatment began. These mice were treated with estrogen withdrawal (−E2) or tamoxifen (Tam) beginning on day 17. Tumor volume was measure every four days.

The target in another experiment is p38β (Homo sapiens, UniProt Q15759). Kind of experiment: In vitro kinase assay of Example 3: p38β-induced phosphorylation of ER. It is filed as biochemical. The note with it: ERα and ERβ substrates.
For experiment [3], the system named is p38 MAPK. The following applies: baculovirus-expressed ERα, FIG. 3A.
For experiment [4], the system named is p38 MAPK. Kind of experiment: In vitro phosphorylation of Xenopus oocyte-expressed AIB1 by p38 MAPK. It is filed as biochemical. The following applies: Xenopus oocyte-expressed AIB1, FIG. 4 lane 4.

Sequence of p38β (Q15759 whole entry): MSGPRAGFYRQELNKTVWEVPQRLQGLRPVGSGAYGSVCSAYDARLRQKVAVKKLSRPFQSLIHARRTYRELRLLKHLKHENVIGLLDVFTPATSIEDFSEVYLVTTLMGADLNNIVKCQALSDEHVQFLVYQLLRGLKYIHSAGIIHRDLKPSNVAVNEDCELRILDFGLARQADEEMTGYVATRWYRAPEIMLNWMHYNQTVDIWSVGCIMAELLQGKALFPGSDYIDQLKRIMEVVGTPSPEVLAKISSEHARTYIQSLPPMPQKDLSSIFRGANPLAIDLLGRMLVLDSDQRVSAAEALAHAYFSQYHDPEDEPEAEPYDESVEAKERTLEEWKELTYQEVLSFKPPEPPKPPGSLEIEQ

As to `C[C@]12CC[C@@H]3c4ccc(O)cc4C[C@@H](CCCCCCCCC[S+]([O-])CCCC(F)(F)C(F)(F)F)[C@H]3[C@@H]1CC[C@@H]2O` (stereo partly drawn) [ICI 182,780], in experiment [1] (resistant xenograft tumors), the “growth of −E2^R and Tam^R resistant tumors” value is “can still be inhibited”.
Consider `CC/C(=C(\c1ccccc1)c1ccc(OCCN(C)C)cc1)c1ccccc1` [tamoxifen], for which, in experiment [2], the “xenografted tumor growth (tumor volume over time)” value is given as “suppresses tumor growth for several months”. The “tumor growth in MCF-7 xenograft model” value in experiment [1] (tumor growth later resumes despite continued treatment) is given as “suppresses tumor growth for several months”.
For the compound `C[S+]([O-])c1ccc(-c2nc(-c3ccncc3)c(-c3ccc(F)cc3)[nH]2)cc1` (stereo not drawn) [SB 203580], the “p38β-induced phosphorylation of ER” value on p38β is “can be inhibited”. The “phosphorylation of ERα by p38 MAP kinase in the presence of inhibitor” value in the experiment on p38 MAPK [3] was “inhibited”. Besides, in the experiment on p38 MAPK [4], the “AIB1 phosphorylation by p38 MAPK” value is “inhibits AIBI phosphorylation”.
